Test results taken from patent US9814714B2, “Kinase modulation, and indications therefor” (Plexxikon Inc., priority 2015, dated 2017).

How the values were obtained:
[1] = system: pERK in COLO829 cells (BRAF^V600E, heterozygous); assay: Phospho-ERK AlphaScreen assay, pERK inhibition in COLO829; assay type: cell-based; conditions: Homo sapiens, COLO-829, 1 h, read-out: pERK inhibition IC50 COLO829
Procedure: (§1) Phospho-ERK AlphaScreen® assay: The degree of ERK phosphorylation was determined using an AlphaScreen® assay where an increase in ERK1/2 phosphorylation at Thr202/Tyr204 brought the donor and acceptor AlphaScreen® beads into close proximity, generating a signal for quantification. To determine the effects of compound treatment on phosphorylation of ERK1/2, cells were plated in a 96-well plate and treated with an 8-point titration of compound for one hour at 37° C. before lysis. To detect pERK, cell lysates were incubated with streptavidin-coated AlphaScreen® donor beads, anti-mouse IgG AlphaScreen® acceptor beads, a biotinylated anti-ERK1/2 rabbit antibody, and a mouse antibody that recognizes ERK1/2 only when it is phosphorylated on Thr202 and Tyr204. The biotinylated ERK1/2 antibody binds to both the streptavidin-coated AlphaScreen® donor beads and to ERK1/2 (regardless of its phosphorylation state), and the phospho-ERK1/2 antibody binds to the acceptor beads and to ERK1/2 that is phosphorylated at Thr202/Tyr204. An increase in ERK1/2 phosphorylation at Thr202/Tyr204 brings the donor and acceptor AlphaScreen® beads into close proximity, generating a signal that can be quantified on an EnVision reader (Perkin Elmer).
(§2) Using AlphaScreen® technology, the ability of Formula I to affect the phosphorylation of ERK and MEK in the cells was measured quantitatively. Following treatment with compound, the cells were lysed, and a sample of the lysate was transferred to an assay plate. The lysate was mixed with antibodies directed against total ERK/MEK, antibodies that recognize specific phosphorylation sites on ERK/MEK, AlphaScreen® anti-mouse IgG Acceptor beads, and Streptavidin Donor beads. Upon excitation of the donor beads with laser light at 680 nm, singlet oxygen was produced. This singlet oxygen was rapidly quenched, unless the AlphaScreen® Acceptor beads were in close proximity, in which case a proximity signal can be measured at 580 nm. In the presence of phosphorylated ERK/MEK, there is a very strong proximity signal.
(§3) 1. One day before the assay, 50,000 cells were plated in each well of a 96-well tissue-culture-treated plate (Corning #3610) in a 50 μL volume. Cells were incubated at 37° C. overnight.
(§4) 2. Compounds were diluted in DMSO to 500× final concentration. Each compound was plated as an 8-point titration, using 1:3 dilutions in DMSO. The maximum concentration was about 5 mM.
(§5) 3. 1 μl of compound was added to each well of a 96-well polypropylene plate (Corning #3363). For A375, COLO829, SK-MEL-3, HCT116, and HT-29, the high control was DMSO, and the low control was 10 μM PLX4720 (CAS No. 918505-84-7). For B9 and IPC-298, the high control was 3.33 μM PLX4720, and the low control was DMSO. 4. 249 μL growth media was added to compounds, diluting them 250-fold. 5. […] The compound was incubated with the cells at 37° C. for one hour. 6. The media was aspirated, and the cells were lysed in 50 μL of ice-cold 1× Cell Lysis buffer. The plates were incubated on ice for 5 minutes to allow complete lysis of the cells. 7. A mixture of biotinylated donor antibody, acceptor antibody, and anti-mouse IgG AlphaScreen® acceptor beads in 1× AlphaLISA immunoassay buffer was prepared. 8. 5 μL of lysate was transferred to a 384-well assay plate (Perkin Elmer #6005359). 5 μL of the antibody and acceptor bead mixture was added. The plates were spinned.

[2] = system: pERK in IPC-298 cells (NRAS^Q61L); assay: Phospho-ERK AlphaScreen assay, pERK activation in IPC-298; assay type: cell-based, human; conditions: Homo sapiens, IPC-298, read-out: pERK activation EC50 IPC298
Procedure: as §1, §2, §3, §4, §5

[3] = system: pERK in A375 cells (BRAF^V600E, homozygous); assay: Phospho-ERK AlphaScreen assay, pERK inhibition in A375; assay type: cell-based; conditions: Homo sapiens, A-375, 1 h, read-out: pERK inhibition IC50 A375
Procedure: as §1, §2, §3, §4, §5

[4] = system: pERK in HCT116 cells (KRAS^G13D); assay: Phospho-ERK AlphaScreen assay, pERK activation in HCT116; assay type: cell-based; conditions: Homo sapiens, HCT-116, read-out: pERK activation EC50 HCT116
Procedure: as §1, §2, §3, §4, §5

[5] = system: pERK in B9 cells (HRAS^Q61L); assay: Phospho-ERK AlphaScreen assay, pERK activation in B9; assay type: cell-based, murine; conditions: Mus musculus, read-out: pERK activation EC50 B9
Procedure: as §1, §2, §3, §4, §5

[6] = target: NIH/3T3 cells stably expressing KIAA1549-BRAF fusions (Homo sapiens, UniProt P15056); assay: BRAF fusion xenograft tumor growth; assay type: in vivo, balb/c nu/nu mice; conditions: three of the four KIAA1549-BRAF fusions; PLX4720 chow
NIH/3T3 cells stably expressing KIAA1549-BRAF fusions, sequence (P15056 448-766 limits assumed): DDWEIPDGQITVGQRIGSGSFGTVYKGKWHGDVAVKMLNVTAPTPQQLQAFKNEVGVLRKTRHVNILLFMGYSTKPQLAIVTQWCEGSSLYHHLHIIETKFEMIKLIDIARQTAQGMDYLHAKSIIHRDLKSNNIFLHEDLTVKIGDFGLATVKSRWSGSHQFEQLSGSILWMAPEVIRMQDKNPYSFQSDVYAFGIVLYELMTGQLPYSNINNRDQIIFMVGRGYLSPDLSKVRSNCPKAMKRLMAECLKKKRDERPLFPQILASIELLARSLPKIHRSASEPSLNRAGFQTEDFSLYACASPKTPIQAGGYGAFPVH
Procedure: NIH/3T3 (ATCC® CRL-1658™) cells stably expressing KIAA1549-BRAF fusions (Fusion-1, Fusion-2, Fusion-3, and Fusion-4) were injected into the flank of balb/c nu/nu mice. Tumor growth was measured with calipers. Ellipsoid tumor volume was calculated using the following formula: volume=½·length·width^2.

Row | Effect on xenograft tumor growth (in words) [6] | Compound | IC50 [1] | EC50 [2] | IC50 [3] | EC50 [4] | EC50 [5]
1 |  | CNC(=O)c1cc(Oc2ccc(NC(=O)Nc3ccc(Cl)c(C(F)(F)F)c3)cc2)ccn1 [Sorafenib, sorafenib] | 2000 nM | 19 nM | 4400 nM | 86 nM | 25 nM
2 |  | CC(C)(C)c1nc(-c2cccc(NS(=O)(=O)c3c(F)cccc3F)c2F)c(-c2ccnc(N)n2)s1 [Dabrafenib, dabrafenib] | 5 nM | 10 nM | 1 nM | 3 nM | 10 nM
3 | increased tumor growth | CCCS(=O)(=O)Nc1ccc(F)c(C(=O)c2c[nH]c3ncc(Cl)cc23)c1F [PLX4720, reference compound] |  |  |  |  | 
